Reference: US11814352B2, “Salts formed by 2-(1-acyloxy-n-pentyl) benzoic acid and basic amino acid or aminoguanidine, and preparation method and application thereof” (JIANGSU KANION PHARMACEUTICAL CO., LTD., priority 2018, dated 2023)
≈ marks a conversion by molar mass, not a printed value. Where “and” joins values, the source holds several entries; their conditions need not be identical. Equal values may be shown once. Read-outs that look alike come from different tables or passages of the source. Marks after values point to notes of the source that are not given here.

Assays:
[1] = Solubility test (saturated solubility in water); assay type: physicochemical; settings: 25±2° C.; for solubility at 30 min: 25 °C, thermodynamic from solid
Procedure: Test method: 10 mg of a test sample (solid was ground into fine powder) was weighed and added to a certain amount of solvent at 25±2° C. (the temperature of a water bath is controlled at 25° C.), and the solution was shaken vigorously for 30 s every 5 min. The dissolution was observed within 30 min. When there were no visible solute particles or droplets, the test sample was regarded as completely dissolved.

[2] = system: ADP induced platelet aggregation; test: In vitro anti-platelet aggregation, ADP induced (turbidimetry, PRP); assay type: cell-based, rabbits; settings: read-out: IC50 ADP (10 μM); rabbit PRP, inducer ADP 10 μM, 37° C.
[3] = system: AA induced platelet aggregation; test: In vitro anti-platelet aggregation, AA induced (turbidimetry, PRP); assay type: cell-based, rabbits; settings: read-out: IC50 AA (1 mM); rabbit PRP, inducer AA 1 mM, 37° C.
[4] = system: bleeding time in mice after tail cutting; test: Effect on bleeding time in mice after tail cutting; assay type: in vivo, Kunming mice; settings: 5 mg/kg orally once a day for 14 days, 1 h after last dose
Procedure: SPF Kunming mice, weighing 18-22 g, purchased from Beijing Vital River Laboratory Animal Technology Co., Ltd., having a certificate number of SCXK (Beijing) 2010-0002, raised in an SPF animal room with indoor temperature controlled at 23±2° C., and allowed to freely eat and drink. The day and night time was 12 h/12 h.
The administration dose level of the positive drug groups and the test drug groups was 5 mg/kg, and the same amount of normal saline was given to the negative control group. All mice were administered for 14 consecutive days orally once a day. One hour after the last dose, the mice were anesthetized with 1-2% isoflurane, and the tails were cut for 5 mm. The tips of the tails were absorbed dry with filter paper every 30 seconds until the bleeding stopped naturally. Bleeding time is defined as the interval between the start and stop of bleeding.

[5] = system: arteriovenous bypass thrombosis in rats; test: Effect on arteriovenous bypass thrombosis in rats; assay type: in vivo, SD rats; settings: 10 mg/kg/day tail vein 7 days; for inhibition at 10 mg/kg/day: Rattus norvegicus, 168 h, vs model group
Summary of the method: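 Male SD rats (250-280 g) dosed 10 mg/kg/day i.v. (tail vein, saline with 1% DMSO) for 7 days, n=8; vehicle controls. Two hours after the last dose, under pentobarbital, a carotid–jugular shunt holding a weighed suture ran for 15 min; thrombus wet and dry (24 h air-dried) weights taken.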

[6] = system: histidine-deficient TA97, TA98, TA100 and TA102 strains of Salmonella typhimurium; test: Bacterial reverse mutation test (Ames test); settings: 0.1-1000 μg/dish, with and without S9
Procedure: The test bacteria are the histidine-deficient TA97, TA98, TA100 and TA102 strains of Salmonella typhimurium, and the dose range of the test sample is 0.1-1000 μg/dish.

[7] = Acute toxicity test, tail vein injection in mice; settings: female, ICR, mouse, in vivo, iv, LD50 value, Bliss method
ICR mice = test: Acute toxicity test, tail vein injection in mice; settings: for Number of deaths (quantity): 10 animals, 14 days

CCCC[C@H](OC(C)=O)c1ccccc1C(=O)O [I1s, L-Arginine (S)-2-(1-Acetoxy-n-Pentyl) Benzoate]
solubility at 30 min ([1]; read-out: Saturated solubility in H2O, Mean): 136 mg/mL (≈ 544 mM)
solubility at 30 min ([1]; read-out: Saturated solubility in H2O, dissolved sample amount (single determinations)): 134 mg/mL (≈ 535 mM)
Saturated solubility in H2O, dissolved sample amount (single determinations) [1]: 134.24 mg/mL and 138.23 mg/mL and 138.40 mg/mL
IC50 [2]: 720 ± 80 µM
IC50 [3]: 160 ± 20 µM
Bleeding time [4]: 25.31 ± 1.01 min
Dry weight of thrombus ([5]; 2 h after last dose): 5.52 ± 0.44
Wet weight of thrombus ([5]; 2 h after last dose): 20.23 ± 1.25**^
inhibition at 10 mg/kg/day ([5]; read-out: Inhibition rate (dry weight of thrombus)): 45%
inhibition at 10 mg/kg/day ([5]; read-out: Inhibition rate (wet weight of thrombus)): 44.1%
Ames test result (mutagenicity) [6]: negative
LD50 at 14 days [7]: 1120 mg/kg
LD50 at 14 days ([7]; interval in parentheses): 975 to 1290 mg/kg
Symptoms of poisoning (ICR mice; higher dose in the tail vein): convulsions and decreased activity
Body weight D 1 (ICR mice; i.v. 700 mg/kg): 19.4 ± 0.6 g
Body weight D 7 (ICR mice; i.v. 700 mg/kg): 21.0 ± 0.6 g
Body weight D 14 (ICR mice; i.v. 700 mg/kg): 22.3 ± 0.7 g
Number of deaths (quantity) (ICR mice; i.v. 700 mg/kg): 1
Body weight D 1 (ICR mice; i.v. 900 mg/kg): 19.8 ± 0.5 g
Body weight D 7 (ICR mice; i.v. 900 mg/kg): 20.9 ± 0.6 g
Body weight D 14 (ICR mice; i.v. 900 mg/kg): 22.2 ± 0.6 g
Number of deaths (quantity) (ICR mice; i.v. 900 mg/kg): 2
Body weight D 1 (ICR mice; i.v. 1100 mg/kg): 19.4 ± 0.6 g
Body weight D 7 (ICR mice; i.v. 1100 mg/kg): 21.0 ± 0.5 g
Body weight D 14 (ICR mice; i.v. 1100 mg/kg): 22.0 ± 0.5 g
Number of deaths (quantity) (ICR mice; i.v. 1100 mg/kg): 4
Body weight D 1 (ICR mice; i.v. 1300 mg/kg): 19.5 ± 0.4 g
Body weight D 7 (ICR mice; i.v. 1300 mg/kg): 20.8 ± 0.6 g
Body weight D 14 (ICR mice; i.v. 1300 mg/kg): 22.1 ± 0.6 g
Number of deaths (quantity) (ICR mice; i.v. 1300 mg/kg): 6
Body weight D 1 (ICR mice; i.v. 1500 mg/kg): 19.9 ± 0.2 g
Body weight D 7 (ICR mice; i.v. 1500 mg/kg): 21.0 g
Body weight D 14 (ICR mice; i.v. 1500 mg/kg): 23.6 g
Number of deaths (quantity) (ICR mice; i.v. 1500 mg/kg): 9
